# Results from paper PMC6266789 (Viruses, 2018).
# “And” between values parts separate entries of the source, which are not always exact repeats. Identical values can stand only once. Like-named read-outs stand apart in the source and are kept apart here.
# Assays:
# [1] = system: influenza; parameters: method as in earlier work; conditions: infected IC young adults; cited from earlier work
# [2] = system: rec A(H1N1)pdm09; parameters: species or system C57BL/6 mice; conditions: mouse, in vivo
# [3] = system: rec A(H1N1)pdm09; parameters: species or system C57BL/6 mice; conditions: mouse, in vivo; remark: listed apart in the source
# [4] = system: NA of pH1N1 influenza virus recovered from lungs of IS mice; format: biochemical, influenza A(H1N1)pdm09; conditions: read-out: NAI Assay (Oseltamivir) Mean IC50
# [5] = system: rec A(H1N1)pdm09; conditions: mouse, in vivo
# [6] = system: rec A(H1N1)pdm09; parameters: species or system C57BL/6 mice; conditions: mouse, in vivo; remark: listed apart in the source
# [7] = system: pH1N1 influenza virus recovered from lungs of IS mice; assay: microbe, parasite or virus in culture; format: cell-based
smiles,measurement,setting,value
"CCOC(=O)C1=C[C@@H](OC(CC)CC)[C@H](NC(C)=O)[C@@H](N)C1 [Oseltamivir, oseltamivir]","nasal wash levels of IL-6, TNF-α and IFN-γ",[1],reduced
same,"levels of IL-6, TNF-α and IFN-γ after treatment",[2],not reduced
same,MDD (mean days of death),[3],14.7
same,body weight losses over a 21-day period,[3],reduced
same,survival rate,[3],50%
same,MDD (mean days of death),[3]; 20 mg/kg,13 and 16.6
same,IC50,[4],0.0006 µM and 0.0008 µM
"O=P1(N(CCCl)CCCl)NCCCO1 (stereo not drawn) [CP, cyclophosphamide]",development of antibodies (microneutralization),[5],none of them developed antibodies
"NC(=O)c1nc(F)cnc1O [Favipiravir, 6-fluoro-3-hydroxy-2-pyrazinecarboxamide]",MDD (mean days of death),[3],18
same,body weight losses over a 21-day period,[3],reduced
same,decrease of mortality compared to the non-treated group,[3],50%
same,survival rate,[3],50%
same,MDD (mean days of death),[3]; 20 mg/kg,13 and 16.6
same,LVTs vs non-treated and oseltamivir-treated mice,[6],statistically lower
same,IC50,"[7]; read-out: PRA Assay (Favipiravir) IC50; virus from IS mice treated with oseltamivir 20 mg/kg + favipiravir 20 mg/kg BID, day 15; individual mice; Table 1",14 µM
same,IC50,"[7]; unidentified influenza virus, in Mus musculus, 288 h, virus from not treated IS mice, day 12; individual mice; Table 1 (exp 2); read-out: PRA Assay (Favipiravir) IC50",13.8 µM
same,IC50,"[7]; unidentified influenza virus, in Mus musculus, 360 h, virus from not treated IS mice, day 15; individual mice; Table 2 (exp 3); read-out: PRA Assay (Favipiravir) IC50",11.5 µM
same,IC50,"[7]; virus from IS mice treated with favipiravir 20 mg/kg BID, day 15; individual mice; Table 1; read-out: PRA Assay (Favipiravir) IC50",10.6 µM and 13 µM
same,IC50,"[7]; virus from IS mice treated with favipiravir 50 mg/kg BID, day 15; individual mice; Table 2; read-out: PRA Assay (Favipiravir) IC50",12.4 µM
same,IC50,"[7]; virus from IS mice treated with oseltamivir 20 mg/kg + favipiravir 20 mg/kg BID, day 15; individual mice; Table 1; read-out: PRA Assay (Favipiravir) IC50",13 µM
same,IC50,"[7]; virus from IS mice treated with oseltamivir 20 mg/kg + favipiravir 50 mg/kg BID, day 15; individual mice; Table 2; read-out: PRA Assay (Favipiravir) IC50",11.6 µM and 10.4 µM and 9.5 µM
same,IC50,"[7]; virus from not treated IS mice, day 12; individual mice; Table 1 (exp 2); read-out: PRA Assay (Favipiravir) IC50",10.5 µM and 9.5 µM and 9.9 µM
same,IC50,"[7]; virus from not treated IS mice, day 15; individual mice; Table 2 (exp 3); read-out: PRA Assay (Favipiravir) IC50",8.5 µM
same,favipiravir susceptibility phenotype by PRA,"[7]; viruses recovered on day 15 p.i., exp 3",did not show a resistant phenotype
